# According to PubChem BioAssay (NCI):
#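 GI50 = concentration required for 50% inhibition of growth. Definition used: TGI = concentration required for complete inhibition of growth.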
# Experiments:
# Assay in all cases: growth of human tumour cells (NCI), 384-well format
# MALME-3M melanoma = tested on: MALME-3M melanoma
# HOP-92 NSCLC = tested on: HOP-92 NSCLC
# MDA-MB-231 breast = tested on: MDA-MB-231 breast
# SNB-19 CNS = tested on: SNB-19 CNS
# HOP-62 NSCLC = tested on: HOP-62 NSCLC
# HL-60(TB) leukemia = tested on: HL-60(TB) leukemia
# HCT-15 colon = tested on: HCT-15 colon
# SNB-75 CNS = tested on: SNB-75 CNS
# ACHN renal = tested on: ACHN renal
# SN12C renal = tested on: SN12C renal
# SF-539 CNS = tested on: SF-539 CNS
# SK-OV-3 ovarian = tested on: SK-OV-3 ovarian
# NCI-H23 lung = tested on: NCI-H23 lung
# NCI-H460 NSCLC = tested on: NCI-H460 NSCLC
# SF-268 CNS = tested on: SF-268 CNS
# TK-10 renal = tested on: TK-10 renal
# SW-620 colon = tested on: SW-620 colon
# MDA-MB-435 melanoma = tested on: MDA-MB-435 melanoma
# DU-145 prostate = tested on: DU-145 prostate
# NCI-H226 lung = tested on: NCI-H226 lung
# OVCAR-8 ovarian = tested on: OVCAR-8 ovarian
# RXF 393 renal = tested on: RXF 393 renal
# SK-MEL-2 melanoma = tested on: SK-MEL-2 melanoma
# U251 glioblastoma = tested on: U251 glioblastoma
# UO-31 renal = tested on: UO-31 renal
# SF-295 CNS = tested on: SF-295 CNS
# HS 578T breast = tested on: HS 578T breast
# MDA-MB-468 breast = tested on: MDA-MB-468 breast
# UACC-257 melanoma = tested on: UACC-257 melanoma
# 786-0 renal = tested on: 786-0 renal
# K-562 leukemia = tested on: K-562 leukemia
# IGROV1 ovarian = tested on: IGROV1 ovarian
# EKVX NSCLC = tested on: EKVX NSCLC
# A549 NSCLC = tested on: A549 NSCLC
# SK-MEL-5 melanoma = tested on: SK-MEL-5 melanoma
# OVCAR-4 ovarian = tested on: OVCAR-4 ovarian
# A498 renal = tested on: A498 renal
# T-47D breast = tested on: T-47D breast
# NCI-H522 lung = tested on: NCI-H522 lung
# PC-3 prostate = tested on: PC-3 prostate
# OVCAR-5 ovarian = tested on: OVCAR-5 ovarian
# MCF7 breast = tested on: MCF7 breast
# NCI-H322M lung = tested on: NCI-H322M lung
# OVCAR-3 ovarian = tested on: OVCAR-3 ovarian
# SR leukemia = tested on: SR leukemia
# HT29 colon = tested on: HT29 colon
# COLO 205 colon = tested on: COLO 205 colon
# MOLT-4 leukemia = tested on: MOLT-4 leukemia
# KM12 colon = tested on: KM12 colon
# SK-MEL-28 melanoma = tested on: SK-MEL-28 melanoma
# M14 melanoma = tested on: M14 melanoma
# CAKI-1 renal = tested on: CAKI-1 renal
# UACC-62 melanoma = tested on: UACC-62 melanoma
# HCT-116 colon = tested on: HCT-116 colon
structure (smiles),measurement,setting,value
C[C@@H](COCCC(=O)N1CCN(c2ncc(C(F)(F)F)cn2)CC1)Nc1cn[nH]c(=O)c1C(F)(F)F,GI50,MALME-3M melanoma,> 100 µM
same,TGI,MALME-3M melanoma,> 100 µM
same,GI50,HOP-92 NSCLC,41.2 µM
same,TGI,HOP-92 NSCLC,> 100 µM
same,GI50,MDA-MB-231 breast,> 100 µM
same,TGI,MDA-MB-231 breast,> 100 µM
same,GI50,SNB-19 CNS,48 µM
same,TGI,SNB-19 CNS,> 100 µM
same,GI50,HOP-62 NSCLC,4.01 µM
same,TGI,HOP-62 NSCLC,22.5 µM
same,GI50,HL-60(TB) leukemia,2.49 µM
same,TGI,HL-60(TB) leukemia,16 µM
same,GI50,HCT-15 colon,77.9 µM
same,TGI,HCT-15 colon,> 100 µM
same,GI50,SNB-75 CNS,12.4 µM
same,TGI,SNB-75 CNS,> 100 µM
same,GI50,ACHN renal,24 µM
same,TGI,ACHN renal,> 100 µM
same,GI50,SN12C renal,5.17 µM
same,TGI,SN12C renal,51.9 µM
same,GI50,SF-539 CNS,3.28 µM
same,TGI,SF-539 CNS,27.4 µM
same,GI50,SK-OV-3 ovarian,13.9 µM
same,TGI,SK-OV-3 ovarian,79.8 µM
same,GI50,NCI-H23 lung,9.26 µM
same,TGI,NCI-H23 lung,52.1 µM
same,GI50,NCI-H460 NSCLC,16.1 µM
same,TGI,NCI-H460 NSCLC,> 100 µM
same,GI50,SF-268 CNS,10.1 µM
same,TGI,SF-268 CNS,73.1 µM
same,GI50,TK-10 renal,> 100 µM
same,TGI,TK-10 renal,> 100 µM
same,GI50,SW-620 colon,0.187 µM
same,TGI,SW-620 colon,> 100 µM
same,GI50,MDA-MB-435 melanoma,> 100 µM
same,TGI,MDA-MB-435 melanoma,> 100 µM
same,GI50,DU-145 prostate,12.7 µM
same,TGI,DU-145 prostate,> 100 µM
same,GI50,NCI-H226 lung,18.6 µM
same,TGI,NCI-H226 lung,> 100 µM
same,GI50,OVCAR-8 ovarian,14.7 µM
same,TGI,OVCAR-8 ovarian,> 100 µM
same,TGI,RXF 393 renal,20.3 µM
same,GI50,SK-MEL-2 melanoma,> 100 µM
same,TGI,SK-MEL-2 melanoma,> 100 µM
same,GI50,U251 glioblastoma,11.6 µM
same,TGI,U251 glioblastoma,73.7 µM
same,GI50,UO-31 renal,22.4 µM
same,TGI,UO-31 renal,> 100 µM
same,GI50,SF-295 CNS,6.19 µM
same,TGI,SF-295 CNS,33.9 µM
same,GI50,HS 578T breast,1.09 µM
same,TGI,HS 578T breast,> 100 µM
same,GI50,MDA-MB-468 breast,3.72 µM
same,TGI,MDA-MB-468 breast,23.5 µM
same,GI50,UACC-257 melanoma,60.4 µM
same,TGI,UACC-257 melanoma,> 100 µM
same,GI50,786-0 renal,41.5 µM
same,TGI,786-0 renal,> 100 µM
same,GI50,K-562 leukemia,10 µM
same,TGI,K-562 leukemia,> 100 µM
same,GI50,IGROV1 ovarian,69.1 µM
same,TGI,IGROV1 ovarian,> 100 µM
same,GI50,EKVX NSCLC,63.6 µM
same,TGI,EKVX NSCLC,> 100 µM
same,GI50,A549 NSCLC,41 µM
same,TGI,A549 NSCLC,> 100 µM
same,GI50,SK-MEL-5 melanoma,48.5 µM
same,TGI,SK-MEL-5 melanoma,> 100 µM
same,GI50,OVCAR-4 ovarian,> 100 µM
same,TGI,OVCAR-4 ovarian,> 100 µM
same,GI50,A498 renal,> 100 µM
same,TGI,A498 renal,> 100 µM
same,GI50,T-47D breast,24.2 µM
same,TGI,T-47D breast,> 100 µM
same,GI50,NCI-H522 lung,31.8 µM
same,TGI,NCI-H522 lung,> 100 µM
same,GI50,PC-3 prostate,62.5 µM
same,TGI,PC-3 prostate,> 100 µM
same,GI50,OVCAR-5 ovarian,> 100 µM
same,TGI,OVCAR-5 ovarian,> 100 µM
same,GI50,MCF7 breast,14.5 µM
same,TGI,MCF7 breast,> 100 µM
same,GI50,NCI-H322M lung,> 100 µM
same,TGI,NCI-H322M lung,> 100 µM
same,GI50,OVCAR-3 ovarian,35.5 µM
same,TGI,OVCAR-3 ovarian,> 100 µM
same,GI50,SR leukemia,1.31 µM
same,TGI,SR leukemia,2.67 µM
same,GI50,HT29 colon,> 100 µM
same,TGI,HT29 colon,> 100 µM
same,GI50,COLO 205 colon,> 100 µM
same,TGI,COLO 205 colon,> 100 µM
same,GI50,MOLT-4 leukemia,1.53 µM
same,TGI,MOLT-4 leukemia,2.97 µM
same,GI50,KM12 colon,3.66 µM
same,TGI,KM12 colon,82.7 µM
same,GI50,SK-MEL-28 melanoma,> 100 µM
same,TGI,SK-MEL-28 melanoma,> 100 µM
same,GI50,M14 melanoma,46.8 µM
same,TGI,M14 melanoma,> 100 µM
same,GI50,CAKI-1 renal,25.7 µM
same,TGI,CAKI-1 renal,> 100 µM
same,GI50,UACC-62 melanoma,32.3 µM
same,TGI,UACC-62 melanoma,> 100 µM
same,GI50,HCT-116 colon,8.64 µM
same,TGI,HCT-116 colon,> 100 µM
